From paper PMC4503722, “Novel Phenotypic Outcomes Identified for a Public Collection of Approved Drugs from a Publicly Accessible Panel of Assays” (PLoS ONE, 2015)
Where a name gives a salt, the structure may show the parent alone. Read-outs that look alike come from different tables or passages of the source.

Columns and labels:
Experiment in all cases: cells
[1] = test system: HCT116 cells treated with a GSK3β inhibitor; type: cell-based
[2] = test system: nuclear β-catenin in C2C12 cells; type: cell-based
HCT116 = type: cell-based
NCI-H716 cells = type: cell-based, Human
SW480 = type: cell-based
INS-1E cells = type: cell-based, rat
[3] = test system: endothelial tube formation in co-cultures of ECFCs and ADSCs treated with VEGF; type: cell-based, human
DLD-1 = type: cell-based
HeLa cells = type: cell-based; settings: IC50 / EC50; HeLa; read-out: CellCycle G2/M
[4] = read-out: GSK3b inh pretreated_Viability ATP HCT116
[5] = read-out: Basal_Viability ATP HCT116
[6] = read-out: Basal_Viability ATP SW480
[7] = read-out: Basal_Viability ATP DLD-1
[8] = Homo sapiens, HCT-116, GSK3b inhibitor pretreated, read-out: GSK3b inh pretreated_Viability ATP HCT116
[9] = Mus musculus, C2C12, IC50 / EC50, C2C12 beta-catenin translocation, read-out: Wnt Pathway
[10] = Homo sapiens, HCT-116, basal, read-out: Basal_Viability ATP HCT116
[11] = Homo sapiens, IC50 / EC50, NCI-H716, read-out: GLP 1 Secretion
[12] = Homo sapiens, SW480, basal, read-out: Basal_Viability ATP SW480
[13] = Rattus norvegicus, IC50 / EC50, INS-1E, read-out: Insulin Secretion
[14] = Homo sapiens, IC50 / EC50, endothelial tube area, ADSC/ECFC co-culture, read-out: Anti-Angiogenesis
[15] = Homo sapiens, DLD-1, basal, read-out: Basal_Viability ATP DLD-1
[16] = GSK3b inhibitor pretreated, read-out: GSK3b inh pretreated_Viability ATP HCT116
[17] = IC50 / EC50, C2C12 beta-catenin translocation, read-out: Wnt Pathway
[18] = basal, read-out: Basal_Viability ATP HCT116
[19] = IC50 / EC50, NCI-H716, read-out: GLP 1 Secretion
[20] = basal, read-out: Basal_Viability ATP SW480
[21] = IC50 / EC50, INS-1E, read-out: Insulin Secretion
[22] = basal, read-out: Basal_Viability ATP DLD-1

**Q.** With `COc1ccc(OC(=O)N(CC(=O)O)Cc2ccc(OCCc3nc(-c4ccccc4)oc3C)cc2)cc1` as the compound, how does the IC50 [1, 4] read?
**A.** 6.13 µM

**Q.** What about the EC50 ([2]; read-out: Wnt Pathway) of the same compound?
**A.** > 10 µM

**Q.** And the IC50 (HCT116; [5])?
**A.** 7.65 µM

**Q.** What about the EC50 (NCI-H716 cells; read-out: GLP 1 Secretion) of the same compound?
**A.** 1.54 µM

**Q.** And the IC50 (SW480; [6])?
**A.** 6.23 µM

**Q.** And the EC50 (INS-1E cells; read-out: Insulin Secretion)?
**A.** > 10 µM

**Q.** What about the IC50 ([3]; read-out: Anti-Angiogenesis) of the same compound?
**A.** > 10 µM

**Q.** What about the IC50 (DLD-1; [7]) of the same compound?
**A.** 9.55 µM

**Q.** With `CC1=C(C(=O)OC(C)C)C(c2cccc([N+](=O)[O-])c2)C(C(=O)OC2CN(C(c3ccccc3)c3ccccc3)C2)=C(N)N1` (centres unmarked) [Azelnidipine] as the compound, how does the IC50 [1, 8] read?
**A.** 5.5 µM

**Q.** What about the EC50 [2, 9] of the same compound?
**A.** > 10 µM

**Q.** And the IC50 (HCT116; [10])?
**A.** 3.69 µM

**Q.** What about the EC50 (NCI-H716 cells; [11]) of the same compound?
**A.** 1.23 µM

**Q.** What about the IC50 (SW480; [12]) of the same compound?
**A.** 3.84 µM

**Q.** And the EC50 (INS-1E cells; [13])?
**A.** > 10 µM

**Q.** What about the IC50 [3, 14] of the same compound?
**A.** 3.58 µM

**Q.** What about the IC50 (DLD-1; [15]) of the same compound?
**A.** 5.1 µM

**Q.** `Nc1cc(C(F)(F)F)ccc1S` was tested. Which IC50 ([1]; HCT116 pretreated with GSK3b inhibitor, read-out: GSK3b inh pretreated_Viability ATP HCT116) did it give?
**A.** > 20 µM

**Q.** What about the EC50 ([2]; S2 Table, module primary assay, 20 / 20.1 codes per legend, read-out: Wnt Pathway) of the same compound?
**A.** > 10 µM

**Q.** What about the IC50 (HCT116; basal, HCT116, read-out: Basal_Viability ATP HCT116) of the same compound?
**A.** > 20 µM

**Q.** And the EC50 (NCI-H716 cells; read-out: GLP 1 Secretion)?
**A.** 1.16 µM

**Q.** And the IC50 (SW480; basal, SW480, read-out: Basal_Viability ATP SW480)?
**A.** > 20 µM

**Q.** And the EC50 (INS-1E cells; S2 Table, module primary assay, 20 / 20.1 codes per legend, read-out: Insulin Secretion)?
**A.** > 10 µM

**Q.** And the IC50 ([3]; read-out: Anti-Angiogenesis)?
**A.** > 10 µM

**Q.** And the IC50 (DLD-1; basal, DLD-1, read-out: Basal_Viability ATP DLD-1)?
**A.** > 20 µM

**Q.** With `O=C(O)c1ccccc1-c1c2cc(I)c(=O)c(I)c-2oc2c(I)c(O)c(I)cc12` [Erythrosin b] as the compound, how does the IC50 [1, 16] read?
**A.** > 20 µM

**Q.** What about the EC50 [2, 17] of the same compound?
**A.** > 10 µM

**Q.** What about the IC50 (HCT116; [18]) of the same compound?
**A.** > 20 µM

**Q.** And the EC50 (NCI-H716 cells; [19])?
**A.** 2.93 µM

**Q.** And the IC50 (SW480; [20])?
**A.** > 20 µM

**Q.** What about the EC50 (INS-1E cells; [21]) of the same compound?
**A.** > 10 µM

**Q.** What about the IC50 ([3]; IC50 / EC50, endothelial tube area, ADSC/ECFC co-culture, read-out: Anti-Angiogenesis) of the same compound?
**A.** > 10 µM

**Q.** And the IC50 (DLD-1; [22])?
**A.** > 20 µM

**Q.** How did the IC50 [1, 8] turn out when `C/C(=C(/CCOC(=O)C(C)C)SS/C(CCOC(=O)C(C)C)=C(\C)N(C=O)Cc1cnc(C)nc1N)N(C=O)Cc1cnc(C)nc1N` [sulbutiamine] was run?
**A.** > 20 µM

**Q.** What about the EC50 [2, 9] of the same compound?
**A.** > 10 µM

**Q.** What about the IC50 (HCT116; [10]) of the same compound?
**A.** > 20 µM

**Q.** What about the EC50 (NCI-H716 cells; [11]) of the same compound?
**A.** 2.39 µM

**Q.** What about the IC50 (SW480; [12]) of the same compound?
**A.** > 20 µM

**Q.** What about the EC50 (INS-1E cells; [13]) of the same compound?
**A.** > 20 µM

**Q.** And the IC50 (DLD-1; [15])?
**A.** > 20 µM

**Q.** Which results are given for `CCC1=C(C)CN(C(=O)NCCc2ccc(S(=O)(=O)NC(=O)N[C@H]3CC[C@H](C)CC3)cc2)C1=O` [glimepiride, reference compound]?
**A.** IC50 ([1]; Homo sapiens, HCT-116, read-out: HCT-116 (GSK3β) viab. IC50, Table 2, GSK3β inhibitor LY2090314 20 nM, 72 h, Cell TiterGlo, 20 coded): > 20 µM; EC50 ([2]; Mus musculus, C2C12, Table 2, C2C12, […], 20 / 20.1 coded, read-out: Wnt pot. EC50): > 10 µM; IC50 (HCT116; Homo sapiens, HCT-116, 72 h, read-out: HCT-116 viab. IC50, Table 2, basal, 72 h, Cell TiterGlo, non-adherent, 20 coded): > 20 µM; EC50 (NCI-H716 cells; Homo sapiens, NCI-H716, read-out: GLP1 sec. EC50): > 10 µM; IC50 (SW480; Homo sapiens, SW480, 72 h, Table 2, 72 h, Cell TiterGlo, non-adherent, 20 coded, read-out: SW480 viab. IC50): > 20 µM; EC50 (INS-1E cells; Rattus norvegicus, INS-1E, read-out: Ins. sec. EC50): 0.004 µM; EC50 (INS-1E cells; [13]): 0.00406 µM; EC50 (INS-1E cells; Rattus norvegicus, INS-1E, 5 mM glucose, read-out: insulin secretion EC50): 0.0041 µM; IC50 ([3]; Homo sapiens, Table 2, primary assay tube area, 20 = no response in concentration-response, 20.1 = inactive in single concentration testing, read-out: Anti-Angio IC50): > 10 µM; IC50 (DLD-1; Homo sapiens, DLD-1, 72 h, Table 2, 72 h, Cell TiterGlo, non-adherent, 20 coded, read-out: DLD-1 viab. IC50): > 20 µM

**Q.** With `O=C1Nc2ccc(Cl)cc2[C@@](C#CC2CC2)(C(F)(F)F)O1` [efavirenz, reference compound] as the compound, how does the IC50 [1, 8] read?
**A.** 7.3 µM

**Q.** What about the EC50 [2, 9] of the same compound?
**A.** > 10 µM

**Q.** And the IC50 (HCT116; [10])?
**A.** 6.17 µM

**Q.** And the “activity in the GLP-1 secretion assay (in words)” value (NCI-H716 cells)?
**A.** exhibited activity in the GLP-1 secretion assay

**Q.** What about the EC50 (NCI-H716 cells; [11]) of the same compound?
**A.** 2.48 µM

**Q.** What about the IC50 (SW480; [12]) of the same compound?
**A.** 4.61 µM

**Q.** What about the EC50 (INS-1E cells; [13]) of the same compound?
**A.** 3.87 µM

**Q.** And the IC50 [3, 14]?
**A.** > 10 µM

**Q.** And the IC50 (DLD-1; [15])?
**A.** > 20 µM

**Q.** How did the IC50 [1, 4] turn out when `Oc1ccc2[nH]cc(CCCCN3CC=C(c4ccccc4)CC3)c2c1` [Roxindole hydrochloride] was run?
**A.** 3.32 µM

**Q.** And the EC50 ([2]; read-out: Wnt Pathway)?
**A.** > 10 µM

**Q.** And the IC50 (HCT116; [5])?
**A.** 2.5 µM

**Q.** And the EC50 (NCI-H716 cells; read-out: GLP 1 Secretion)?
**A.** > 10 µM

**Q.** What about the IC50 (SW480; [6]) of the same compound?
**A.** 2.47 µM

**Q.** And the EC50 (INS-1E cells; read-out: Insulin Secretion)?
**A.** > 10 µM

**Q.** What about the IC50 ([3]; read-out: Anti-Angiogenesis) of the same compound?
**A.** 4.04 µM

**Q.** And the IC50 (DLD-1; [7])?
**A.** 4.54 µM

**Q.** Which results are given for `Cc1cc(CC(C)CC(C)(C)C)n(O)c(=O)c1` (centres unmarked) [Piroctonum]?
**A.** IC50 [1, 16]: 0.506 µM; EC50 [2, 17]: 0.591 µM; IC50 (HCT116; [18]): 0.772 µM; EC50 (NCI-H716 cells; [19]): > 10 µM; IC50 (SW480; [20]): 0.581 µM; EC50 (INS-1E cells; [21]): > 10 µM; IC50 (DLD-1; [22]): 1.08 µM; EC50 (HeLa cells): > 10 µM
